Source: patent US20160280651A1, “COMPOUNDS THAT INDUCE ABA RESPONSES” (THE REGENTS OF THE UNIVERSITY OF CALIFORNIA, priority 2013, published 2016)

What was measured:
ZmRab17 and ZmLEA = experiment: Quantitative RT-PCR of ABA-responsive genes in maize; assay type: in vivo
Description: FIG. 13A-FIG. 13E. LC66C6 modulates ABA responses in diverse species. Germination inhibition (A) and transpirational water loss in detached leaves 2-hours after detachment (B) in response to compounds shown. The expression of ABA-responsive marker genes in Soybean (C), Barley (D) and Maize (E) after application of chemicals. D, P, L and A indicate DMSO, pyrabactin, LC66C6 and (+)-ABA, respectively.
Total RNA was isolated using Plant RNA purification reagent (Invitrogen, USA) according to the manufacturer's instructions. cDNA was synthesized from 1 μg of total RNA using the QantiTec reverse transcription kit (Qiagen, USA). Real-time PCR using Maxima® SYBR Green/Fluorescein qPCR Master Mix (Fermentas) was performed with the iQ5 real-time PCR detection system (Bio-Rad, Hercules, Calif.). The relative amounts of target mRNAs were determined using the relative standard curve method and were normalized by relative amount of internal control mRNA. Biological triplicate experiments were performed.

Arabidopsis plants [1] = experiment: Stomatal aperture measurement; assay type: in vivo; settings: wild-type, aba2 and abi1-1; 25 μM spray
Protocol: (§1) Physiological assays were performed on Arabidopsis plants grown at 22±2° C. and relative humidity (RH) 45±10% under a 16/8-h light/dark cycle. For transpirational water loss analyses in Arabidopsis, plants were pre-treated by aerosol spray of 4 ml solution containing 25 μM compound and 0.05% Tween-20. 12 4-week old plants were sprayed per compound or control analyzed. After overnight pre-treatment with compounds, the aerial portions were detached from roots, and their fresh weight measured at 20 min intervals over a 2 hour time period. To measure stomatal aperture, plants were pre-treated with compounds as described above, covered with plastic lids to maintain high RH and after overnight pre-treatment leaf epidermal impressions were obtained using Suzuki's Universal Micro-Printing (SUMP) method using SUMP impression solution with SUMP B plates (SUMP Laboratory). The leaf impressions were analyzed by light microscopy and stomatal apertures were determined from the pore widths using ImageJ 1.43v software (National Institutes of Health, USA). […] Pots were covered in Parafilm to so that the water loss measured was transpiration mediated. Soil water content % was determined by measuring pot weight and computed by removing dry soil weight from total weight.

Arabidopsis plants [2] = experiment: Transpirational water loss of detached leaves; assay type: in vivo; settings: 25 μM spray
Protocol: as §1

[3] = system: MAPKKK18 promoter::GUS reporter; experiment: MAPKKK18 promoter::GUS ABA-responsive reporter gene assay; assay type: in vivo, Arabidopsis; settings: guard cells, vascular tissues of leaves and roots, radicle tips of imbibed seeds
Protocol: Existing ABA-responsive promoter-GUS fusions are, in our experience, not ideal due to either high background levels or relatively low induction levels in response to ABA. […] We therefore characterized the effects of agonists on MAPKKK18 promoter::GUS reporter transgenic plants. GUS staining was performed in a reaction buffer of the following composition: 50 mM sodium phosphate buffer pH 7.0, 0.05% Tween-20, 2.5 mM potassium ferrocyanide, 2.5 mM potassium ferricyanide, 1 mM X-gluc. The reaction buffer was vacuum infiltrated into test samples for 10 min two times and then incubated at 37° C. for 5 h. The reaction was stopped by washing the samples with 70% ethanol, and chlorophyll pigments bleached by incubation at 65° C.

Arabidopsis plants [4] = experiment: Arabidopsis drought stress assay; assay type: in vivo; settings: 25 μM, aerosol every 3 days
Protocol: FIG. 8A-FIG. 8B. Quinabactin confers drought stress tolerance to wild-type plants. (A) Effect of quinabactin on Arabidopsis drought tolerance. Two-week-old plants were subjected to drought stress by withholding water and were photographed after 12 days. During the drought period, plants were treated every 3 days with 25 μM compound. Plants were re-hydrated after 2 weeks drought treatment; the number of surviving plants (out of total number tested) for each treatment is shown next to each image. (B) Effects of quinabactin on soybean. Two-week-old plants were subjected to drought stress by withholding water and photographed after 8 days drought treatment. […]
Physiological assays were performed on Arabidopsis plants grown at 22±2° C. and relative humidity (RH) 45±10% under a 16/8-h light/dark cycle. […] 12 4-week old plants were sprayed per compound or control analyzed. After overnight pre-treatment with compounds, the aerial portions were detached from roots, and their fresh weight measured at 20 min intervals over a 2 hour time period. […] The leaf impressions were analyzed by light microscopy and stomatal apertures were determined from the pore widths using ImageJ 1.43v software (National Institutes of Health, USA). […] Pots were covered in Parafilm to so that the water loss measured was transpiration mediated. […]

In the case of CCCN1C(=O)CCc2cc(NS(=O)(=O)Cc3ccc(C)cc3)ccc21 [LC66C6], the “Expression of ABA-responsive genes ZmRab17 and ZmLEA” value (ZmRab17 and ZmLEA) is reported as “weakly induces”, the Stomatal closure (Arabidopsis plants [1]) is reported as “induces stomatal closure in wild-type and the aba2 mutant, but not in the abi1-1 mutant” and the “Transpirational water loss in detached leaves” value (Arabidopsis plants [2]; abi1-1 mutant) is reported as “did not reduce transpirational water loss”. The “Transpirational water loss in detached leaves” value (Arabidopsis plants [2]; wild-type and aba2 mutant) was “reduced the amount of transpirational water loss”, the “Tissue pattern of reporter gene expression” value [3] was “induces expression of reporter genes in the same tissues as (+)-ABA” and the Drought stress tolerance (Arabidopsis plants [4]) was “confers drought stress tolerance in Arabidopsis plants similar to that conferred by treatment with (+)-ABA”.
